Assays:
[1] = test system: firefly luciferase-holoCA fusion protein
Source text: The free zinc concentration can be related to the amount of orange emission, or preferably to the levels of luciferase emission and ultimate acceptor emission, or their ratio, which is proportional to zinc concentration.

[2] = test system: apoNanoLuc-CA; experiment: bioluminescence emission of NanoLuc-CA with fluorescent sulfonamide and competing sulfonamide (FIG. 4); assay type: binding, human; details: 19 nM free Zn, after addition of competing nonfluorescent sulfonamide
Source text: In another preferred embodiment the luciferase gene fused to the human carbonic anhydrase II gene is from a variant of the luciferase isolated from the deep sea shrimp Oplophorus gracilirostris (offered commercially by Promega as Nanoluc), and the luciferin is a coelenterazine derivative called furimazine (“Engineered Luciferase Reporter from a Deep Sea Shrimp Utilizing a Novel Imidazopyrazinone Substrate” by Mary P. Hall †, James Unch ‡, Brock F. Binkowski †, Michael P. Valley †, Braeden L. Butler †, Monika G. Wood †, Paul Otto †, Kristopher Zimmerman †, Gediminas Vidugiris †, Thomas Machleidt †, Matthew B. Robers †, Hélène A. Benink †, Christopher T. Eggers †, Michael R. Slater †, Poncho L. Meisenheimer ‡, Dieter H. Klaubert ‡, Frank Fan †, Lance P. Encell *†, and Keith V. Wood † ACS Chem. Biol., 2012, 7 (11), pp 1848-1857DOI: 10.1021/cb3002478). […] An important advantage of this ratiometric approach is that it is essentially independent of time-dependent changes in bioluminescence emission, which are frequently observed. […]

[3] = biological target: wild type human carbonic anhydrase II (Homo sapiens, UniProt P00918); details: free zinc ion, read-out: KD for binding to carbonic anhydrase; cited from earlier work

## CC(=O)Nc1nnc(S(N)(=O)=O)s1 [acetazolamide]
[1]
  displacement of LISSAMINE rhodamine sulfonamide from holoCA sulfonamide binding site: completely displaced

## fluorescein thioureidyl ethyl phenyl sulfonamide [fluorescein sulfonamide]
[2]
  specificity of sulfonamide binding: specific

## zinc ion
[3]
  Kd: ~4 pM

— patent US9193990B2, “Bioluminescent metal ion assay” (priority 2013, dated 2015)
